In patent US11660289B2 (Small Pharma Ltd, priority 2020, dated 2023):
Read-outs that look alike come from different tables or passages of the source.

How the values were obtained:
[1] = Human liver mitochondrial fraction intrinsic clearance; type: in vitro ADME; conditions: 0.5 mg/mL human liver mitochondrial fraction
Protocol: Human Liver Mitochondrial (HLMt) fractions contain high quantities of MAO enzymes and therefore, provide a useful model system to measure the clearance of MAO substrates.
A series of investigations using HLMts were conducted to assess the effect of MAO on the metabolism of DMT and deuterated DMT analogues in vitro.

[2] = Rat hepatocyte stability of D0, D6 and D8 5-MeO-DMT analogues; type: in vitro ADME; conditions: cryopreserved pooled rat hepatocytes, 0.5×10^6 viable cells/mL, 60 min; for half-life at 1 μM: cryopreserved pooled rat hepatocytes in suspension, read-out: Qualified t1/2; for hepatocyte CLint at 1 μM: read-out: Qualified CLint (μL/min/10^6 cells)
Protocol: (§1) Test compounds (5 μM) were incubated with cryopreserved hepatocytes in suspension. Samples were removed at 6 time points over the course of a 60 min experiment and test compounds were analysed by LC-MS/MS.
(§2) The final incubation volume was 500 μL.
(§3) Two control compounds were included with each species. Each compound was incubated for 0, 5, 10, 20, 40 and 60 min at 37° C. The reactions were stopped by transferring incubate into acetonitrile at the appropriate time points, in a 1:3 ratio. The termination plates were centrifuged at 3,000 rpm for 30 min at 4° C. to precipitate the protein.
(§4) Following protein precipitation, the sample supernatants were combined in cassettes of up to 4 compounds, internal standard was added and samples analysed using Cyprotex generic LC-MS/MS conditions.
(§5) From a plot of ln peak area ratio (compound peak area/internal standard peak area) against time, the gradient of the line is determined. Subsequently, half-life (t½) and intrinsic clearance (CLint) were calculated using the equations below:
(§6) Elimination rate constant (k)=(−gradient)
(§7) where V=Incubation volume (μL)/Number of cells

[3] = Human hepatocyte stability of D0, D6 and D8 5-MeO-DMT analogues; type: in vitro ADME; conditions: cryopreserved pooled human hepatocytes in suspension, cryopreserved pooled human hepatocytes, 0.5×10^6 viable cells/mL, 60 min; for hepatocyte CLint: read-out: Qualified CLint (μL/min/10^6 cells); for half-life: read-out: Qualified t1/2
Protocol: as §1, §2, §3, §4, §5, §6, §7

Rat hepatocytes = experiment: Rat hepatocyte stability of D0, D6 and D8 5-MeO-DMT analogues; type: in vitro ADME; conditions: for Fold change from 5-MeO-DMT, CLint / Fold change from 5-MeO-DMT, t1/2: Rat hepatocytes; for Qualified CLint (μL/min/10^6 cells) / Qualified t1/2: cryopreserved pooled rat hepatocytes, 0.5×10^6 viable cells/mL, 60 min
Protocol: as §1, §2, §3, §4, §5, §6, §7

Human hepatocytes = experiment: Human hepatocyte stability of D0, D6 and D8 5-MeO-DMT analogues; type: in vitro ADME; conditions: for Fold change from 5-MeO-DMT, CLint / Fold change from 5-MeO-DMT, t1/2: Human hepatocytes; for Qualified CLint (μL/min/10^6 cells) / Qualified t1/2: cryopreserved pooled human hepatocytes, 0.5×10^6 viable cells/mL, 60 min
Protocol: as §1, §2, §3, §4, §5, §6, §7

[4] = In vivo pharmacokinetic profile after IV and IM dosing in rats
[5] = Human half-life and clearance of DMT calculated from modelled literature data; conditions: in vivo; for clearance: read-out: clearance rate
Source text: DMT is metabolised very quickly in the human body. […] Based on these calculations, we reasoned that DMT is largely metabolised before reaching the human liver.

[6] = cited from earlier work
[7] = in vivo; cited from earlier work
[8] = tested on: Human (mixed gender) hepatocytes; experiment: Human hepatocyte intrinsic clearance of DMT and deuterated DMT analogues
Protocol: Standard final incubation conditions are 1 μM compound in buffer containing nominally ˜0.5 million viable cells/mL, ˜0.9% (v/v) acetonitrile (MeCN) and ˜0.1% (v/v) DMSO (specific assay concentrations outlined above, section 2).
Samples are then centrifuged at 4 oc.

[9] = calculated from modelled data of Timmermann et al.

Compound: NCc1ccccc1 [Benzylamine, benzylamine]
- Intrinsic Clearance (μL/min/mg protein) [1]: 60.0 μL/min/mg protein
- half-life [1]: 23.2 min

Compound: COc1ccc2[nH]cc(CCN(C)C)c2c1 [Compound 5-MeO-DMT, 5-Methoxy-N,N-dimethyltryptamine]
- half-life at 1 μM [2]: 4.46 min
- hepatocyte CLint at 1 μM [2]: 312 µL/min/1e6 cells
- hepatocyte CLint [3]: 104 µL/min/1e6 cells
- half-life [3]: 13.3 min

Compound: [2H]C([2H])([2H])N(CCc1c[nH]c2ccc(OC)cc12)C([2H])([2H])[2H] [Compound D6-5MeO-DMT, d6-5-Methoxydimethyltryptamine]
- Fold change from 5-MeO-DMT, CLint (Rat hepatocytes): 1.5 fold
- Fold change from 5-MeO-DMT, t1/2 (Rat hepatocytes): 1.5 fold
- Qualified CLint (μL/min/10^6 cells) (Rat hepatocytes): 205.5 μL/min/10^6 cells
- Qualified t1/2 (Rat hepatocytes): 6.76 min
- Fold change from 5-MeO-DMT, CLint (Human hepatocytes): 1.2 fold
- Fold change from 5-MeO-DMT, t1/2 (Human hepatocytes): 1.2 fold
- Qualified CLint (μL/min/10^6 cells) (Human hepatocytes): 85.7 μL/min/10^6 cells
- Qualified t1/2 (Human hepatocytes): 16.2 min

Compound: [2H]C([2H])([2H])N(C([2H])([2H])[2H])C([2H])([2H])Cc1c[nH]c2ccccc12 [SPL028viii, α,α,bis-deuterio-N,N-hexadeuterio-dimethyltryptamine]
- Intrinsic Clearance (μL/min/mg protein) [1]: 10.9 μL/min/mg protein
- Overall exposure compared with DMT (SPL026) ([4]; rat plasma, following IV and IM dosing (FIGS. 1 to 3)): greater overall exposure
- Total systemic exposure (mean AUC0-inf) compared to SPL026 ([4]; rats, equivalent single IV and IM doses, ANOVA): significantly higher total systemic exposure
- Cmax compared with DMT (SPL026) ([4]; rats, following IM dosing): significantly higher

Compound: CN(C)CCc1c[nH]c2ccccc12 [SPL026, N,N-dimethyltryptamine]
- Intrinsic Clearance (μL/min/mg protein) [1]: 161.0 μL/min/mg protein
- half-life [1]: 8.6 min
- clearance ([5]; based on a 70 kg person): 350 mL/min/kg
- half-life [5, 9]: ~5 min
- clearance [5, 9]: 24500 mL/min
- duration of action ([6]; in vivo): under 20 minutes
- Difference in AUC0-inf between male and female groups ([4]; rats, 2 mg/kg IV fumarate): no significant difference

Compound: [2H]C([2H])(c1c[nH]c2ccccc12)C([2H])([2H])N(C)C [Compound D4DMT, α,α,β,β-tetradeuterio-DMT]
- onset and behaviour disrupting effects compared to equal doses of DMT [7]: shorter time to onset and potentiation of behaviour disrupting effects

Compound: O=C(c1ccc(OCCN2CCCCC2)cc1)c1c(-c2ccc(O)cc2)sc2cc(O)ccc12 [Raloxifene]
- half-life at 1 μM [2]: 11.1 min
- hepatocyte CLint at 1 μM [2]: 125 µL/min/1e6 cells
- hepatocyte CLint [3]: 152 µL/min/1e6 cells
- half-life [3]: 9.13 min

Compound: NCCc1c[nH]c2ccc(O)cc12 [Serotonin, serotonin]
- Intrinsic Clearance (μL/min/mg protein) [1]: 151.0 μL/min/mg protein
- half-life [1]: 9.2 min

Compound: CNCCc1c[nH]c2ccccc12 [NMT, N-Methyltryptamine]
- duration of “visuals” ([6]; smoking, 50-100 mg): 15 to 30 s

Compound: [2H]C([2H])([2H])N(CCc1c[nH]c2ccccc12)C([2H])([2H])[2H] [SPL028vii, N,N-hexadeuterio-dimethyltryptamine]
- Intrinsic clearance of SPL026 minus intrinsic clearance of SPL028vii [8]: 2.3 μL/min/million cells

Compound: d8-5-Methoxydimethyltryptamine [Compound D8-5MeO-DMT]
- Fold change from 5-MeO-DMT, CLint (Rat hepatocytes): 1.8 fold
- Fold change from 5-MeO-DMT, t1/2 (Rat hepatocytes): 1.8 fold
- Qualified CLint (μL/min/10^6 cells) (Rat hepatocytes): 176.0 μL/min/10^6 cells
- Qualified t1/2 (Rat hepatocytes): 7.89 min
- Fold change from 5-MeO-DMT, CLint (Human hepatocytes): 1.8 fold
- Fold change from 5-MeO-DMT, t1/2 (Human hepatocytes): 1.8 fold
- Qualified CLint (μL/min/10^6 cells) (Human hepatocytes): 57.6 μL/min/10^6 cells
- Qualified t1/2 (Human hepatocytes): 24.3 min
